# Patent US9499553B2 (CHUGAI SEIYAKU KABUSHIKI KAISHA, priority 2013, dated 2016)
# pIC50: −log10 of the molar value.
# Target: T1, human NaPi-IIb (Homo sapiens, UniProt O95436)
# T1 construct: expressed in transfected cells
# T1 sequence (O95436 1-690): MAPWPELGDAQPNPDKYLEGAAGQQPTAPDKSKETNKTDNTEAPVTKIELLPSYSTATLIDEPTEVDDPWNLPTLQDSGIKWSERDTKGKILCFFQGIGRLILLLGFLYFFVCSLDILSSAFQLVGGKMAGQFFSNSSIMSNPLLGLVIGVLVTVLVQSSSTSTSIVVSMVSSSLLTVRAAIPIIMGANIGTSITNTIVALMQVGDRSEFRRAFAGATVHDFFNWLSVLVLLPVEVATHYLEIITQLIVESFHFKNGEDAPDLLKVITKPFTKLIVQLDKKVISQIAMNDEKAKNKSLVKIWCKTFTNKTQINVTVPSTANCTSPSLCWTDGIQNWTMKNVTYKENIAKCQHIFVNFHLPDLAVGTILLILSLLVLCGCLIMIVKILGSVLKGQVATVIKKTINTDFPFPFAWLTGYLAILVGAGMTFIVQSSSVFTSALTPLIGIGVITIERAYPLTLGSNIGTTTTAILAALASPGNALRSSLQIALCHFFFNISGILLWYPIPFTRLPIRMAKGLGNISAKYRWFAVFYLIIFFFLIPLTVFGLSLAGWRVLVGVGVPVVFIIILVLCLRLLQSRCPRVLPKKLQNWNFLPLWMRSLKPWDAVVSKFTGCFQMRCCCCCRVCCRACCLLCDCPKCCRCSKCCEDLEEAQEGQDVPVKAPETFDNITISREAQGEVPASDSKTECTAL
# Test: Inhibitory effect on 33PO4 uptake into human NaPi-IIb-expressing CHO cells
# Format: cell-based
# Settings: read-out: IC50
# In short: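 Uptake of ³³PO4 was measured by scintillation counting after ice-cold buffer A washes. Cells were CHO stably expressing human NaPi-IIb, seeded overnight, and exposed to ³³PO4 in buffer A at room temperature.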
row,Structure (SMILES),pIC50
1,CN(CCO)CCOc1ccc(CN2C(=O)C(C(=O)Nc3ccc(C(F)(F)F)cc3-c3cc(C(F)(F)F)ncn3)=C(O)C3(CCC3)N2C)c(F)c1F [Example 347],4.60

# Same assay, conditions: read-out: IC50 against 33PO4 uptake into human NaPi-IIb-expressing cells
row,Structure (SMILES),pIC50
1,COCCN(CCOC)CCOc1ccc(CN2C(=O)C(C(=O)Nc3ccc(C(F)(F)F)cc3-c3cc(C(F)(F)F)ncn3)=C(O)C3(CCC3)N2C)c(F)c1F [Example 348],4.58
2,COCC(C)(C)N(C)CCOc1ccc(CN2C(=O)C(C(=O)Nc3ccc(C(F)(F)F)cc3-c3cc(C(F)(F)F)ncn3)=C(O)C3(CCC3)N2C)c(F)c1F [Example 349],5.08
3,COC(C)(C)CN(C)CCOc1ccc(CN2C(=O)C(C(=O)Nc3ccc(C(F)(F)F)cc3-c3cc(C(F)(F)F)ncn3)=C(O)C3(CCC3)N2C)c(F)c1F [Example 350],4.77
4,CN1N(Cc2ccc(OCCN(CCO)CCO)c(F)c2F)C(=O)C(C(=O)Nc2ccc(C(F)(F)F)cc2-c2cc(C(F)(F)F)ncn2)=C(O)C12CCC2 [Example 351],4.59
5,CN1N(Cc2ccc(OCCn3cncn3)c(F)c2F)C(=O)C(C(=O)Nc2ccc(C(F)(F)F)cc2-c2cc(C(F)(F)F)ncn2)=C(O)C12CCC2 [Example 352],4.78
6,CC(=O)NCCN(C)CCOc1ccc(CN2C(=O)C(C(=O)Nc3ccc(C(F)(F)F)cc3-c3cc(C(F)(F)F)ncn3)=C(O)C3(CCC3)N2C)c(F)c1F [Example 353],4.62
7,CC(=O)N(C)CCN(C)CCOc1ccc(CN2C(=O)C(C(=O)Nc3ccc(C(F)(F)F)cc3-c3cc(C(F)(F)F)ncn3)=C(O)C3(CCC3)N2C)c(F)c1F [Example 354],4.59
8,COC(=O)[C@@H]1CCCN1CCOc1ccc(CN2C(=O)C(C(=O)Nc3ccc(C(F)(F)F)cc3-c3cc(C(F)(F)F)ncn3)=C(O)C3(CCC3)N2C)c(F)c1F [Example 355],4.82
9,COC1(C)CN(CCOc2ccc(CN3C(=O)C(C(=O)Nc4ccc(C(F)(F)F)cc4-c4cc(C(F)(F)F)ncn4)=C(O)C4(CCC4)N3C)c(F)c2F)C1 [Example 356],4.66
10,CSC1CN(CCOc2ccc(CN3C(=O)C(C(=O)Nc4ccc(C(F)(F)F)cc4-c4cc(C(F)(F)F)ncn4)=C(O)C4(CCC4)N3C)c(F)c2F)C1 [Example 357],4.66
11,CN1N(Cc2ccc(OCCN3CCC(N4CCOCC4)CC3)c(F)c2F)C(=O)C(C(=O)Nc2ccc(C(F)(F)F)cc2-c2cc(C(F)(F)F)ncn2)=C(O)C12CCC2 [Example 358],5.04
12,CN1CCN(CCOc2ccc(CN3C(=O)C(C(=O)Nc4ccc(C(F)(F)F)cc4-c4cc(C(F)(F)F)ncn4)=C(O)C4(CCC4)N3C)c(F)c2F)CC1=O [Example 359],4.74
13,CN1N(Cc2ccc(OCCN3CCN(CCO)CC3)c(F)c2F)C(=O)C(C(=O)Nc2ccc(C(F)(F)F)cc2-c2cc(C(F)(F)F)ncn2)=C(O)C12CCC2 [Example 360],4.64
14,CN1N(Cc2ccc(OCCN3CCN(CCOCCO)CC3)c(F)c2F)C(=O)C(C(=O)Nc2ccc(C(F)(F)F)cc2-c2cc(C(F)(F)F)ncn2)=C(O)C12CCC2 [Example 361],4.69
15,CN1N(Cc2ccc(OCCN3CCN(CCCO)CC3)c(F)c2F)C(=O)C(C(=O)Nc2ccc(C(F)(F)F)cc2-c2cc(C(F)(F)F)ncn2)=C(O)C12CCC2 [Example 362],4.73
16,CN1N(Cc2ccc(OCCN3CCN(S(C)(=O)=O)CC3)c(F)c2F)C(=O)C(C(=O)Nc2ccc(C(F)(F)F)cc2-c2cc(C(F)(F)F)ncn2)=C(O)C12CCC2 [Example 363],4.55
17,CN(C)C(=O)N1CCN(CCOc2ccc(CN3C(=O)C(C(=O)Nc4ccc(C(F)(F)F)cc4-c4cc(C(F)(F)F)ncn4)=C(O)C4(CCC4)N3C)c(F)c2F)CC1 [Example 364],4.68
18,CN(CCOc1ccc(CN2C(=O)C(C(=O)Nc3ccc(C(F)(F)F)cc3-c3cc(C(F)(F)F)ncn3)=C(O)C3(CCCC3)N2C)c(F)c1F)C1CCOCC1 [Example 365],4.91
19,CN(CCOc1ccc(CN2C(=O)C(C(=O)Nc3ccc(C(F)(F)F)cc3-c3cc(C(F)(F)F)ncn3)=C(O)C3(CCCC3)N2C)c(F)c1F)C1CCOC1 (stereo not shown) [Example 366],4.79
20,CN1N(Cc2ccc(OCCN3C4CCC3COC4)c(F)c2F)C(=O)C(C(=O)Nc2ccc(C(F)(F)F)cc2-c2cc(C(F)(F)F)ncn2)=C(O)C12CCCC2 [Example 367],4.85

row,Structure (SMILES),pIC50
1,COC(=O)CN(C)CCOc1ccc(CN2C(=O)C(C(=O)Nc3ccc(C(F)(F)F)cc3-c3cc(C(F)(F)F)ncn3)=C(O)C3(CCCC3)N2C)c(F)c1F [Example 368],4.83
2,CN1N(Cc2ccc(OCCN3CC(F)(F)C3)c(F)c2F)C(=O)C(C(=O)Nc2ccc(C(F)(F)F)cc2-c2cc(C(F)(F)F)ncn2)=C(O)C12CCCC2 [Example 369],4.66
3,C[C@@H]1COC[C@H](C)N1CCOc1ccc(CN2C(=O)C(C(=O)Nc3ccc(C(F)(F)F)cc3-c3cc(C(F)(F)F)ncn3)=C(O)C3(CCCC3)N2C)c(F)c1F [Example 370],4.74
4,CN1N(Cc2ccc(OCCN3CCOCC3(C)C)c(F)c2F)C(=O)C(C(=O)Nc2ccc(C(F)(F)F)cc2-c2cc(C(F)(F)F)ncn2)=C(O)C12CCCC2 [Example 371],5.07
5,COCC(C)(C)N(C)CCOc1ccc(CN2C(=O)C(C(=O)Nc3ccc(C(F)(F)F)cc3-c3cc(C(F)(F)F)ncn3)=C(O)C3(CCCC3)N2C)c(F)c1F [Example 372],4.79
6,CN(CCO)CCOc1ccc(CN2C(=O)C(C(=O)Nc3ccc(C(F)(F)F)cc3-c3cc(C(F)(F)F)ncn3)=C(O)C3(CCCC3)N2C)c(F)c1F [Example 373],4.63
7,CN1N(Cc2ccc(OCCN3CCC(N4CCOCC4)CC3)c(F)c2F)C(=O)C(C(=O)Nc2ccc(C(F)(F)F)cc2-c2cc(C(F)(F)F)ncn2)=C(O)C12CCCC2 [Example 374],4.79
8,COC[C@@H]1CCCN1CCOc1ccc(CN2C(=O)C(C(=O)Nc3ccc(C(F)(F)F)cc3-c3cc(C(F)(F)F)ncn3)=C(O)C3(CCCC3)N2C)c(F)c1F [Example 375],4.75
9,CN1N(Cc2ccc(OCCN3CCN(CCO)CC3)c(F)c2F)C(=O)C(C(=O)Nc2ccc(C(F)(F)F)cc2-c2cc(C(F)(F)F)ncn2)=C(O)C12CCCC2 [Example 376],4.67
10,COCCN1CCN(CCOc2ccc(CN3C(=O)C(C(=O)Nc4ccc(C(F)(F)F)cc4-c4cc(C(F)(F)F)ncn4)=C(O)C4(CCCC4)N3C)c(F)c2F)CC1 [Example 377],5.06
11,CN1N(Cc2ccc(OCCN3CCN(CCOCCO)CC3)c(F)c2F)C(=O)C(C(=O)Nc2ccc(C(F)(F)F)cc2-c2cc(C(F)(F)F)ncn2)=C(O)C12CCCC2 [Example 378],4.74
12,CN1N(Cc2ccc(OCCN3CCN(S(C)(=O)=O)CC3)c(F)c2F)C(=O)C(C(=O)Nc2ccc(C(F)(F)F)cc2-c2cc(C(F)(F)F)ncn2)=C(O)C12CCCC2 [Example 379],4.56
13,CN1N(Cc2ccc(OCCN3[C@@H]4COC[C@H]3C4)c(F)c2F)C(=O)C(C(=O)Nc2ccc(C(F)(F)F)cc2-c2cc(C(F)(F)F)ncn2)=C(O)C12CCCC2 [Example 380],4.69
14,"CN1N(Cc2ccc(OCCN[C@@H](CC(=O)O)C(=O)O)c(F)c2F)C(=O)C(C(=O)Nc2ccc(C(F)(F)F)cc2-c2cc(C(F)(F)F)ncn2)=C(O)C12CCCC2 [Example 381, (2S)-2-[2-[2,3-Difluoro-4-[[10-hydroxy-6-methyl-8-oxo-9-[[4-(trifluoromethyl)-2-[6-(trifluoromethyl)pyrimidin-4-yl]phenyl]carbamoyl]-6,7-diazaspiro[4.5]dec-9-en-7-yl]methyl]phenoxy]ethylamino]butanedioate]",4.66
15,"CN1N(Cc2ccc(OCCNC(CC(=O)O)CC(=O)O)c(F)c2F)C(=O)C(C(=O)Nc2ccc(C(F)(F)F)cc2-c2cc(C(F)(F)F)ncn2)=C(O)C12CCCC2 [Example 382, 3-[2-[2,3-Difluoro-4-[[10-hydroxy-6-methyl-8-oxo-9-[[4-(trifluoromethyl)-2-[6-(trifluoromethyl)pyrimidin-4-yl]phenyl]carbamoyl]-6,7-diazaspiro[4.5]dec-9-en-7-yl]methyl]phenoxy]ethylamino]pentanedioate]",4.68
16,"CN1N(Cc2ccc(OCCCOC[C@H](O)CO)c(F)c2F)C(=O)C(C(=O)Nc2ccc(C(F)(F)F)cc2-c2ccc(C(F)(F)F)nc2)=C(O)C12CCC2 [Example 383, 6-[[4-[3-[(2R)-2,3-Dihydroxypropoxy]propoxy]-2,3-difluorophenyl]methyl]-9-hydroxy-5-methyl-7-oxo-N-[4-(trifluoromethyl)-2-[6-(trifluoromethyl)pyridin-3-yl]phenyl]5,6-diazaspiro[3.5]non-8-ene-8-carboxamide]",4.68
17,CN1N(Cc2ccc(OCCCCOC[C@H](O)CO)c(F)c2F)C(=O)C(C(=O)Nc2ccc(C(F)(F)F)cc2-c2ccc(C(F)(F)F)nc2)=C(O)C12CCC2 [Example 384],4.96
18,CN1N(Cc2ccc(OCCCCCOC[C@H](O)CO)c(F)c2F)C(=O)C(C(=O)Nc2ccc(C(F)(F)F)cc2-c2ccc(C(F)(F)F)nc2)=C(O)C12CCC2 [Example 385],5.21
19,CN1N(Cc2ccc(OCCCOC[C@H](O)CO)c(F)c2F)C(=O)C(C(=O)Nc2ccc(C(F)(F)F)cc2-c2ccc(C(F)(F)F)nc2)=C(O)C12CCCC2 [Example 386],4.72
